From PubChem BioAssay AID2060883 (Molecular Pharmacology Branch, DTP, NCI, 2025)
Where “and” joins values, the source holds several entries; their conditions need not be identical. Identical values can stand only once.

System: 843782-103-R-J1-PDC complex spheroid viability
Assay: Anticancer human tumor 843782-103-R-J1-PDC patient-derived lung adenocarcinoma cell line growth inhibition [RAS]
Details: for viability, T/C: stronger effect = lower value
Summary of the method: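 Agents were tested in combination matrices in half-log decrements from a top concentration at or near clinical Cmax (10 microM if undetermined). Targets were multi-cell spheroids of tumour lines plus HUVEC and MSC stromal cells.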

[1] = curve of first compound, second compound 0.00316 µM
[2] = curve of first compound, second compound 0.01 µM
[3] = curve of first compound, second compound 0.0316 µM
[4] = curve of first compound, second compound 0.1 µM
[5] = curve of first compound, second compound 0.316 µM
[6] = curve of first compound, second compound 1 µM
[7] = second compound 0.00316 µM, first compound 0.0316 µM
[8] = second compound 0.00316 µM, first compound 0.1 µM
[9] = second compound 0.01 µM, first compound 0.0316 µM
[10] = second compound 0.01 µM, first compound 0.1 µM
[11] = second compound 0.0316 µM, first compound 0.0316 µM
[12] = second compound 0.0316 µM, first compound 0.1 µM
[13] = second compound 0.1 µM, first compound 0.0316 µM
[14] = second compound 0.1 µM, first compound 0.1 µM
[15] = second compound 0.316 µM, first compound 0.0316 µM
[16] = second compound 0.316 µM, first compound 0.1 µM
[17] = second compound 1 µM, first compound 0.0316 µM
[18] = second compound 1 µM, first compound 0.1 µM
[19] = second compound 0.0316 µM, first compound 0.316 µM
[20] = second compound 0.0316 µM, first compound 1 µM
[21] = second compound 0.0316 µM, first compound 3.16 µM
[22] = second compound 0.0316 µM, first compound 10 µM
[23] = second compound 0.1 µM, first compound 0.316 µM
[24] = second compound 0.1 µM, first compound 1 µM
[25] = second compound 0.1 µM, first compound 3.16 µM
[26] = second compound 0.1 µM, first compound 10 µM
[27] = second compound 0.316 µM, first compound 0.316 µM
[28] = second compound 0.316 µM, first compound 1 µM
[29] = second compound 0.316 µM, first compound 3.16 µM
[30] = second compound 0.316 µM, first compound 10 µM
[31] = second compound 1 µM, first compound 0.316 µM
[32] = second compound 1 µM, first compound 1 µM
[33] = second compound 1 µM, first compound 3.16 µM
[34] = second compound 1 µM, first compound 10 µM
[35] = curve of first compound, second compound 3.16 µM
[36] = curve of first compound, second compound 10 µM
[37] = second compound 3.16 µM, first compound 0.0316 µM
[38] = second compound 3.16 µM, first compound 0.1 µM
[39] = second compound 3.16 µM, first compound 0.316 µM
[40] = second compound 3.16 µM, first compound 1 µM
[41] = second compound 3.16 µM, first compound 3.16 µM
[42] = second compound 3.16 µM, first compound 10 µM
[43] = second compound 10 µM, first compound 0.0316 µM
[44] = second compound 10 µM, first compound 0.1 µM
[45] = second compound 10 µM, first compound 0.316 µM
[46] = second compound 10 µM, first compound 1 µM
[47] = second compound 10 µM, first compound 3.16 µM
[48] = second compound 10 µM, first compound 10 µM
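Also: viability read after seven days of compound exposure.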

Structure (SMILES): CC(C)n1nc(-c2ccc3oc(N)nc3c2)c2c(N)ncnc21 + C=CC(=O)N1CCN(c2nc(OCC3CCCN3C)nc3c(F)c(-c4nc(N)cc(C)c4C(F)(F)F)c(Cl)cc23)C(C)C1
- IC50 [1]: 14.2 nM
- IC50 [2]: 9.03 nM
- IC50 [3]: 10.4 nM
- IC50 [4]: 8.53 nM
- IC50 [5]: 8.44 nM
- IC50 [6]: 9.84 nM
- viability, T/C (second compound 0.00316 µM, first compound 0.000316 µM): 93.5%
- viability, T/C (second compound 0.00316 µM, first compound 0.001 µM): 72%
- viability, T/C (second compound 0.00316 µM, first compound 0.00316 µM): 81.2%
- viability, T/C (second compound 0.00316 µM, first compound 0.01 µM): 53.2%
- viability, T/C [7]: 36.3%
- viability, T/C [8]: 21.2%
- viability, T/C (second compound 0.01 µM, first compound 0.000316 µM): 86.5%
- viability, T/C (second compound 0.01 µM, first compound 0.001 µM): 79.8%
- viability, T/C (second compound 0.01 µM, first compound 0.00316 µM): 63.3%
- viability, T/C (second compound 0.01 µM, first compound 0.01 µM): 50.2%
- viability, T/C [9]: 30.8%
- viability, T/C [10]: 18.8%
- viability, T/C (second compound 0.0316 µM, first compound 0.000316 µM): 84.4%
- viability, T/C (second compound 0.0316 µM, first compound 0.001 µM): 79.2%
- viability, T/C (second compound 0.0316 µM, first compound 0.00316 µM): 66.6%
- viability, T/C (second compound 0.0316 µM, first compound 0.01 µM): 48.3%
- viability, T/C [11]: 36.5%
- viability, T/C [12]: 20.9%
- viability, T/C (second compound 0.1 µM, first compound 0.000316 µM): 81.6%
- viability, T/C (second compound 0.1 µM, first compound 0.001 µM): 73.6%
- viability, T/C (second compound 0.1 µM, first compound 0.00316 µM): 66.4%
- viability, T/C (second compound 0.1 µM, first compound 0.01 µM): 45.4%
- viability, T/C [13]: 33.1%
- viability, T/C [14]: 19.9%
- viability, T/C (second compound 0.316 µM, first compound 0.000316 µM): 101%
- viability, T/C (second compound 0.316 µM, first compound 0.001 µM): 73.5%
- viability, T/C (second compound 0.316 µM, first compound 0.00316 µM): 67.3%
- viability, T/C (second compound 0.316 µM, first compound 0.01 µM): 51%
- viability, T/C [15]: 28.8%
- viability, T/C [16]: 19.2%
- viability, T/C (second compound 1 µM, first compound 0.000316 µM): 85.3%
- viability, T/C (second compound 1 µM, first compound 0.001 µM): 73.9%
- viability, T/C (second compound 1 µM, first compound 0.00316 µM): 62.2%
- viability, T/C (second compound 1 µM, first compound 0.01 µM): 53.5%
- viability, T/C [17]: 31.8%
- viability, T/C [18]: 18.7%

Structure (SMILES): CC(C)NCC(C(=O)N1CCN(c2ncnc3c2C(C)CC3O)CC1)c1ccc(Cl)cc1 (stereo not given) + C=CC(=O)N1CCN(c2nc(OCC3CCCN3C)nc3c(F)c(-c4nc(N)cc(C)c4C(F)(F)F)c(Cl)cc23)C(C)C1
- IC50 [1]: 726 nM
- IC50 [2]: 711 nM
- IC50 [3]: 672 nM
- IC50 [4]: 669 nM
- IC50 [5]: 641 nM
- IC50 [6]: 869 nM
- viability, T/C [7]: 91.6%
- viability, T/C [8]: 81.3%
- viability, T/C (second compound 0.00316 µM, first compound 0.316 µM): 70%
- viability, T/C (second compound 0.00316 µM, first compound 1 µM): 42.9%
- viability, T/C (second compound 0.00316 µM, first compound 3.16 µM): 18.8%
- viability, T/C (second compound 0.00316 µM, first compound 10 µM): 8.64%
- viability, T/C [9]: 88.5%
- viability, T/C [10]: 85.1%
- viability, T/C (second compound 0.01 µM, first compound 0.316 µM): 75.1%
- viability, T/C (second compound 0.01 µM, first compound 1 µM): 38.3%
- viability, T/C (second compound 0.01 µM, first compound 3.16 µM): 19.2%
- viability, T/C (second compound 0.01 µM, first compound 10 µM): 8.6%
- viability, T/C [11]: 89%
- viability, T/C [12]: 81.2%
- viability, T/C [19]: 70.6%
- viability, T/C [20]: 38.8%
- viability, T/C [21]: 17.3%
- viability, T/C [22]: 6.65%
- viability, T/C [13]: 91.5%
- viability, T/C [14]: 77.9%
- viability, T/C [23]: 65.4%
- viability, T/C [24]: 44.7%
- viability, T/C [25]: 17.2%
- viability, T/C [26]: 8.54%
- viability, T/C [15]: 91.5%
- viability, T/C [16]: 79.7%
- viability, T/C [27]: 67.2%
- viability, T/C [28]: 40.1%
- viability, T/C [29]: 18.2%
- viability, T/C [30]: 8.75%
- viability, T/C [17]: 89.2%
- viability, T/C [18]: 74.2%
- viability, T/C [31]: 72.2%
- viability, T/C [32]: 47.9%
- viability, T/C [33]: 20.7%
- viability, T/C [34]: 7.97%

Structure (SMILES): C[C@@H](NC(=O)c1ncnc(N)c1Cl)c1ncc(C(=O)Nc2cc(C(F)(F)F)c(Cl)cn2)s1
- viability, T/C (compound 0.0316 µM): 103% and 104% and 109% (2×)
- viability, T/C (compound 0.1 µM): 105% [middle of 4 runs]
- viability, T/C (compound 0.316 µM): 99.7% [middle of 4 runs]
- viability, T/C (compound 1 µM): 104% (2×) and 113% and 98%
- viability, T/C (compound 3.16 µM): 109% [middle of 4 runs]
- viability, T/C (compound 10 µM): 103% [middle of 4 runs]
- IC50 (curve of compound): > 10000 nM

Structure (SMILES): CC1(O)CCCC1n1c(=O)c(C(F)F)cc2cnc(NC3CCN(S(C)(=O)=O)CC3)nc21 (stereo not given) + C#Cc1c(F)ccc2cc(O)cc(-c3ncc4c(N5CC6CCC(C5)N6)nc(OCC56CCCN5CC(F)C6)nc4c3F)c12
- IC50 [3]: 237 nM
- IC50 [4]: 343 nM
- IC50 [5]: 283 nM
- IC50 [6]: 304 nM
- IC50 [35]: 149 nM
- IC50 [36]: < 31.6 nM
- viability, T/C [11]: 98.9%
- viability, T/C [12]: 93.4%
- viability, T/C [19]: 34.7%
- viability, T/C [20]: 41.8%
- viability, T/C [21]: 23.2%
- viability, T/C [22]: 3.99%
- viability, T/C [13]: 102%
- viability, T/C [14]: 82.7%
- viability, T/C [23]: 37%
- viability, T/C [24]: 38.9%
- viability, T/C [25]: 23.6%
- viability, T/C [26]: 3.28%
- viability, T/C [15]: 104%
- viability, T/C [16]: 77.5%
- viability, T/C [27]: 33.8%
- viability, T/C [28]: 37.3%
- viability, T/C [29]: 26.5%
- viability, T/C [30]: 3.67%
- viability, T/C [17]: 97.9%
- viability, T/C [18]: 79.1%
- viability, T/C [31]: 39.2%
- viability, T/C [32]: 31.7%
- viability, T/C [33]: 26.2%
- viability, T/C [34]: 3.42%
- viability, T/C [37]: 84.6%
- viability, T/C [38]: 56.5%
- viability, T/C [39]: 27.6%
- viability, T/C [40]: 33.9%
- viability, T/C [41]: 26%
- viability, T/C [42]: 2.68%
- viability, T/C [43]: 52.9%
- viability, T/C [44]: 32.7%
- viability, T/C [45]: 30.9%
- viability, T/C [46]: 27.6%
- viability, T/C [47]: 29%
- viability, T/C [48]: 1.43%

Structure (SMILES): CCC(CC)c1cc(NC2CCC(N)C2)n2nccc2n1 (stereo not given) + C#Cc1c(F)ccc2cc(O)cc(-c3ncc4c(N5CC6CCC(C5)N6)nc(OCC56CCCN5CC(F)C6)nc4c3F)c12
- IC50 [3]: 1850 nM
- IC50 [4]: 1900 nM
- IC50 [5]: 1820 nM
- IC50 [6]: 1740 nM
- IC50 [35]: 1260 nM
- IC50 [36]: 642 nM
- viability, T/C [11]: 107%
- viability, T/C [12]: 102%
- viability, T/C [19]: 100%
- viability, T/C [20]: 108%
- viability, T/C [21]: 2.66%
- viability, T/C [22]: 0.77%
- viability, T/C [13]: 112%
- viability, T/C [14]: 105%
- viability, T/C [23]: 114%
- viability, T/C [24]: 111%
- viability, T/C [25]: 2.16%
- viability, T/C [26]: 0.62%
- viability, T/C [15]: 113%
- viability, T/C [16]: 109%
- viability, T/C [27]: 99.4%
- viability, T/C [28]: 102%
- viability, T/C [29]: 2.35%
- viability, T/C [30]: 0.68%
- viability, T/C [17]: 89.2%
- viability, T/C [18]: 98%
- viability, T/C [31]: 96.7%
- viability, T/C [32]: 95.2%
- viability, T/C [33]: 1.42%
- viability, T/C [34]: 0.57%
- viability, T/C [37]: 86.4%
- viability, T/C [38]: 83.9%
- viability, T/C [39]: 91.3%
- viability, T/C [40]: 62.4%
- viability, T/C [41]: 2.2%
- viability, T/C [42]: 0.56%
- viability, T/C [43]: 67.2%
- viability, T/C [44]: 59.9%
- viability, T/C [45]: 64.2%
- viability, T/C [46]: 41.5%
- viability, T/C [47]: 0.51%
- viability, T/C [48]: 0.22%
